Laboratory results published in patent US12458654B2, “Methods of conditioning patients for T cell therapy” (Kite Pharma Inc., priority 2015, dated 2025).

Experiments:
[1] = human, in vivo
[2] = test system: serum levels of cytokine analytes
Protocol: T cell products were generated by transduction of autologous lymphocytes with a g-murine retrovirus carrying an anti-CD19 CAR construct gene, followed by expansion to achieve desired cell dose. Anti-CD19 CAR+ T cell product characteristics were evaluated at time of harvest, or after co-culture with CD19+ cells, by flow cytometry and multiplex cytokine analysis of co-culture supernatants. CAR+ T cell co-culture for product characterization was performed with K562-CD19 cells or K562-NGFR control cells, at an effector to target ratio of 1:1. Standard incubation time was 18 hours.
Cytokine and chemokine levels were measured using EMDmillipore Luminex® xMAP® multiplex assays. Data acquisition and analysis were performed using a Luminex 200™ instrument and xPONENT® 3.1 data analysis software. For IL-7, a human IL-7 Quantikine HS ELISA Kit (HS750) was used with samples run neat per manufacturer's guidelines. The frequency of CAR T cells in circulation was measured by a quantitative PCR analysis. Patients were administered a preconditioning regimen comprising of 300 mg/m^2 cyclophosphamide on days −5 and −4, and 30 mg/m^2 fludarabine on days −5, −4, and −3. Patient sera was collected prior to administration of cyclophosphamide and fludarabine between days −12 and −5 (“pre”), immediately before administration of CAR+ T cells on day 0 (“post”) and on select days following CAR+ T cell administration up to day 18. The serum concentrations of GF-CSF, IL-2, MCP-1, IL-6, IL-10, MCP-4, CRP, IFN gamma, Granzyme A, IL-15, IL-5, Granzyme B, IL-8, IP-10, MIP-1b, PLGF, IL-16, TARC, Eotaxin-3, sICAM-1, sVCAM-1, and SAA were measured pre- and post-conditioning and on select days after administration of CAR+ T cells, as shown in FIG. 6.

[3] = test system: serum levels of cytokine analytes; details: in vivo
[4] = 300 mg/m^2 cyclophosphamide, 30 mg/m^2 fludarabine, pre vs day 0

O=P1(N(CCCl)CCCl)NCCCO1 (centres unmarked) [cyclophosphamide]
Incidence of dose limiting toxicity (DLT) [1]: 29%

cyclophosphamide and fludarabine
Serum concentration of CRP following conditioning [2, 4]: significantly increased
Serum concentration of IL-5 following conditioning [2, 4]: Increases
Serum concentration of IL-7 following conditioning [2, 4]: significantly increased
Serum concentration of IL-10 following conditioning [2, 4]: Increases
Serum concentration of IL-15 following conditioning [2, 4]: significantly increased
Serum concentration of IP-10 following conditioning [2, 4]: Increases
Serum concentration of MCP-1 following conditioning [2, 4]: significantly increased
Serum concentration of PLGF following conditioning [2, 4]: significantly increased
Serum concentration of s-ICAM1 following conditioning [2, 4]: Increases
Serum perform after conditioning [2, 4]: decrease
Markers showing changes in a majority of patients, associated with p<0.05 ([2]; FIG. 14, markers measured prior to CAR T cell infusion): 7 out of 41 measured markers
CRP increase, average [3]: about 10 fold
CRP increase, range [3]: essentially no change to an increase of about 25 fold
CRP level in patient sera after conditioning [3]: increased in some patients and remained stable or decreased in others
Change in serum CRP [3]: essentially no change
Change in serum PLGF [3]: only a slight increase
Change in serum VEGF-D [3]: essentially no change
Change in serum sICAM-1 [3]: essentially no change
Decrease of serum MIP-1β [3]: about 50%
IL-15 increase relative to baseline [3]: less than 10 fold
IL-15 increase relative to baseline, average [3]: about 35 fold
IL-15 level in patient sera after conditioning [3]: at least some increase
MCP-1 increase [3]: less than 4 fold
MCP-1 increase, average [3]: about 5 fold
MCP-1 level in patient sera after conditioning [3]: at least some increase
MIP-1 β level in patient sera after conditioning [3]: increased in some patients and remained stable or decreased in others
MIP-10 levels increase, average [3]: about 1.5 fold
MIP-10 levels increase, range [3]: essentially no change to an increase of about 3 fold
PLGF increase, average [3]: about 30 fold
PLGF increase, range [3]: about 2 fold or less to an increase of about over 100 fold
PLGF level in patient sera after conditioning [3]: at least some increase
VEGF-D increase, average [3]: about 3 fold
VEGF-D increase, range [3]: essentially no change to an increase of about 6 fold
VEGF-D level in patient sera after conditioning [3]: increased in some patients and remained stable or decreased in others
sICAM-1 increase, average [3]: about 3 fold
sICAM-1 increase, range [3]: essentially no change to an increase of about 4.5 fold
sICAM-1 level in patient sera after conditioning [3]: increased in some patients and remained stable or decreased in others
Change in serum IP-10 ([3]; ip): essentially no change
IP-10 increase, average ([3]; ip): about 3.5 fold
IP-10 level in patient sera after conditioning ([3]; ip): increased in some patients and remained stable or decreased in others
